This is an account of results in patent US8993310B2, “Device for diagnosis of physiologic status and/or selection of the best spermatozoa of a semen sample based on chemotaxis, and procedure of use thereof” (Consejo Nacional de Investigaciones Cientificas y Technicas …, priority 2009, dated 2015).

“Also recorded” adds a separate entry of the source.

For the assay, the system named is spermatozoa. The experiment in a line: Sperm separation by chemotaxis in the two-compartment device (aggregation in compartment 1a). Conditions: for percentage of aggregated spermatozoa in compartment 1a by chemotaxis (net, Δ vs control): 6 million S/ml, 10 pM progesterone, 20 minutes incubation. It counts as cell-based. The method, then:
Separation of mobile spermatozoa (S) of seminal plasma is done by the Percoll technique. A volume of about 2 ml semen is used, which is deposited on 1 ml Percoll gradient (lower layer: 500 μl Percoll 95%, upper layer: 500 μl of Percoll 47.5%, in HAM-F10). After centrifuging 20 minutes at 1800 rpm, the cell pellet is recovered and washed twice by centrifugation for 7 min at 1000 rpm, with HAM-F10 medium. Finally, the recovered pellet is suspended in 1 ml of HAM-F10 medium, cell count is performed in a cell count chamber, and volume is adjusted in order to obtain a concentration of 8 million S/ml. S capability is increased in HAM-F10 medium supplemented with 1% human serum albumin (HSA) for 4 hours a 37° C., under 5% CO2 atmosphere in air.
When capacitation time is finished, S concentration is adjusted in order to obtain 6 million mobile S/ml, and two devices are set up as described in the preceding section (FIGS. 1-3), one without attractant as negative control, and the other with progesterone as attractant.
To set up the device control, a device as described in FIGS. 1 to 3, proceed as follows: 1) the plug is placed in compartment 1a, where culture medium (HAM-F10/1%HSA) is placed, 2) the bridge linking both compartments is filled with culture medium, 3) S suspension is placed in compartment 1b (130 μl of the solution of 6 million mobile S/ml) and this compartment is closed with the plug, 4) compartment 1a is unplugged and filled with culture medium (130 μl).
For device set up with the attractant, another device is prepared as described in FIGS. 1 to 3, like the device control but replacing culture medium with a 10 pM Progesterone solution diluted in culture medium. Once both devices are set up (“Control” and “Attractant”), they are incubated for 20 minutes at 37° C., under 5% CO2 atmosphere in air.
To take the device apart and recover the best spermatozoa, the compartment solution (1a) containing culture medium or attractant is removed. On the spermatozoa suspension removed from compartment 1a of both devices (control and attractant) cell count is performed in a cell count chamber. Then the difference in percentage of S found in each of these two compartments is determined, which enables to value net percentage of S migrating to the attractant-containing compartment (“Δ”).

Regarding `C[C@H]1O[C@@H](n2cnc3c(N)ncnc32)C[C@@H]1O` [ddAdo], the “sperm aggregation in compartment 1a by chemotaxis when cells were previously treated with inhibitor or antibody” value (cells pre-treated, progesterone as attractant (FIGS. 8 and 9)) is reported as “no sperm aggregation due to chemotaxis is seen”.
For the compound `CC(=O)[C@H]1CC[C@H]2[C@@H]3CCC4=CC(=O)CC[C@]4(C)[C@H]3CC[C@]12C` [progesterone], the “percentage of aggregated spermatozoa in compartment 1a by chemotaxis (net, Δ vs control)” value is “about 10%”. Also, the “percentage of aggregated spermatozoa in compartment 1a by chemotaxis (net, Δ vs control)” value (listed as Progesterone) came to 9±0.4%. Besides, the “sperm aggregation in a decreasing versus an increasing gradient of progesterone” value (decreasing gradient of attractant compared with increasing gradient (FIG. 10)) was “similar”. Where the note is “equal concentration of hormone in both compartments 1a and 1b (FIG. 10)”, the “sperm aggregation in the absence of gradient of progesterone” value is given as “sperm aggregation is reduced; also recorded: no sperm aggregation observed”.
